Measurements from patent publication US7671061B2, “Methods and compositions for treating pain” (Hydra Biosciences, Inc., priority 2005, dated 2010).

Biological target: T1, hTRPA1 (Homo sapiens, UniProt O75762, K186N)
T1 construct: expressed in transfected cells; host or cells: HEK293/TREx (Invitrogen), induced with tetracycline
Experiment: High throughput Ca2+ fluorescence (Fluo4) assay, AITC stimulation
Assay type: cell-based
Settings: Table 1; read-out: hTRPA1 Fluo4 IC50
Description: The assay depended on detection of the rise in intracellular Ca^2+ concentration ([Ca^2+]i) following channel activation in cells inducibly expressing the TRPA1 channel. Ca^2+ rise was quantified with the use of fluorescent Ca^2+ indicators that were loaded into cells and thereafter indicated the [Ca^2+]i. Ca^2+ influx followed activation of the TRPA1 channel. Compounds inhibiting the [Ca^2+]i rise were considered hits for further investigation.
These cells were maintained in the growth medium recommended by the manufacturer supplemented with 100 μg/ml hygromycin to promote retention of the TRPA1 construct. After growing to near confluency, cells were plated at a density of ˜25,000 cells/well in 384 well CellBind plates (Corning) in the presence of 1 μg/ml tetracycline, and allowed to grow for 20-30 hrs. A nearly confluent monolayer resulted. Cells were then loaded with Ca^2+ dye: Fura-2/AM or Fluo4/AM was added to the wells to a final concentration of 2 μM or 1 μM, respectively, and incubated for 80 min or 60 min, respectively, at room temperature. […] Frames were acquired at a rate of 0.2 Hz. During the assay, the plates were continuously […], with pipette mixing of wells following addition of each reagent. For the screening assay, 13 μl of a diluted stock (at 50 μM) was added to each well for 2 minutes following the collection of a short (4 frame) baseline. […] Data was collected for ˜3 minutes following addition of AITC, where the fluorescent intensity (for Fluo4) and the F340/F380 ratio (for Fura-2) were proportional to the [Ca^2+]i. Negative controls consisted of HEK293/TREx TRPA1 cells exposed to AITC, but no compound. […] These controls defined a screening window, and “hits” were defined as those compounds inhibiting the fluorescence response by at least 40%. IC50 values were determined for compounds defined as “hits.” The Fluo4 cell-based fluorescence assay was used to determine the intracellular Ca^2+ concentration in the presence of varying drug concentration. […] Compounds were tested in triplicate at all concentrations. Standard software was used to fit IC50 curves.

T1 sequence (O75762 whole entry K186N): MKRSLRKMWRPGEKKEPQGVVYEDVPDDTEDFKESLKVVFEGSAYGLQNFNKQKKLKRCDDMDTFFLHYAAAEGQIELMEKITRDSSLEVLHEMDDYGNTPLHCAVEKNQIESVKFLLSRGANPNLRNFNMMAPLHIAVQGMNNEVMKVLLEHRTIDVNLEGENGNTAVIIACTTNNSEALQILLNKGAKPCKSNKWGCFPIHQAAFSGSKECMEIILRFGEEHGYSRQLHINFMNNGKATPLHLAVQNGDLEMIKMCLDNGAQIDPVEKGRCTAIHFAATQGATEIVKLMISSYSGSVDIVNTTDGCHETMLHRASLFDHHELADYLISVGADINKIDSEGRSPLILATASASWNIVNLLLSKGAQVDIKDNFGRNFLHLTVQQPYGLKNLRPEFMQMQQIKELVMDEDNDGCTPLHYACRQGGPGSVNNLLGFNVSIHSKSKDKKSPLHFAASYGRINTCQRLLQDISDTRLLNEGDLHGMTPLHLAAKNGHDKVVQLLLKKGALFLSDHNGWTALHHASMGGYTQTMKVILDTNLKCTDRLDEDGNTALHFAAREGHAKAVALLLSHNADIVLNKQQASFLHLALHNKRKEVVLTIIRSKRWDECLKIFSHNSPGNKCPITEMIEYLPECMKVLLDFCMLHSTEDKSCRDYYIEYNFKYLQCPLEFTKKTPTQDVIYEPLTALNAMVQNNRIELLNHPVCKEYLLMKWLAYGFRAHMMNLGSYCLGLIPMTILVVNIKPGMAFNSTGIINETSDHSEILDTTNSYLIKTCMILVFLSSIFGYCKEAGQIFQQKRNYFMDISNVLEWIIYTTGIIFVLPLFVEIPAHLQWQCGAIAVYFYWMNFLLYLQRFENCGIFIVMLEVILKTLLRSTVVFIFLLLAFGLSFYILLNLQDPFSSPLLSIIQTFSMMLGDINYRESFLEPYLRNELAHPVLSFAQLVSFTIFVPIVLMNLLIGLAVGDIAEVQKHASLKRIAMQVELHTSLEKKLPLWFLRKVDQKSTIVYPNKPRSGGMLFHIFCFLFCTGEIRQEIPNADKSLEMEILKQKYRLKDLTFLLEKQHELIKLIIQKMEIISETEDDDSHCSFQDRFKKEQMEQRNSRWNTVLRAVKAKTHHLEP

IC50 | SMILES
> 10 µM | CC1=C(C(=O)N2CCOCC2)C(c2ccc(F)cc2)NC(=O)N1 (stereo not drawn)
> 10 µM | CC1=C(C(=O)N2CCOCC2)C(c2cccc(Br)c2)NC(=O)N1 (stereo not drawn)
> 10 µM | CCN(CC)C(=O)C1=C(C)NC(=S)NC1c1ccc(F)cc1 (stereo not drawn)
≤ 10 µM | CCOC(=O)C1=C(C)NC(=S)NC1c1ccc(O)c(OC)c1 (stereo not drawn)
> 10 µM | CCOC(=O)C1=C(C)NC(=S)NC1c1ccc(N(C)C)cc1 (stereo not drawn)
> 10 µM | COC(=O)C1=C(C)NC(=O)NC1c1ccccc1OC (stereo not drawn)
> 10 µM | CCOC(=O)C1=C(C)NC(=S)NC1c1ccccc1 (stereo not drawn)
> 10 µM | COC(=O)C1=C(C)NC(=O)NC1c1ccc(O)c(OC)c1 (stereo not drawn)
≥ 30 µM | CC1=C(C(=O)Nc2ccccc2)C(c2ccc(F)cc2)NC(=S)N1 (stereo not drawn)
≥ 30 µM | CC1=C(C(=O)Nc2ccccc2)C(c2ccccc2)NC(=S)N1 (stereo not drawn)
> 10 µM | CC1=C(C(=O)Nc2ccccc2)C(c2ccc(Br)cc2)NC(=S)N1 (stereo not drawn)
> 10 µM | CCOC(=O)C1=C(C)NC(=S)NC1c1ccc(OC)c(OC)c1 (stereo not drawn)
≤ 10 µM | CCOC(=O)C1=C(c2ccccc2)NC(=S)NC1c1ccccc1 (stereo not drawn)
> 10 µM | COC(=O)C1=C(C)NC(=O)NC1c1ccc(O)cc1 (stereo not drawn)
> 10 µM | CCOc1ccccc1C1NC(=O)NC(C)=C1C(=O)OC (stereo not drawn)
> 10 µM | CCOC(=O)C1=C(C)NC(=O)NC1c1ccc(O)cc1 (stereo not drawn)
> 10 µM | CCOC(=O)C1=C(C)NC(=S)NC1c1cc(OC)ccc1OC (stereo not drawn)
> 10 µM | CCOC(=O)C1=C(C)NC(=O)NC1c1ccc(OCC)cc1 (stereo not drawn)
> 10 µM | CC1=C(C(=O)OC(C)C)C(c2ccccc2F)NC(=S)N1 (stereo not drawn)
> 10 µM | CCOC(=O)C1=C(c2ccccc2)N(C)C(=O)NC1c1ccccc1F (stereo not drawn)
> 10 µM | CCOC(=O)C1=C(c2ccccc2)NC(=O)NC1c1ccccc1Cl (stereo not drawn)
≤ 10 µM | CC1=C(C(=O)OC(C)C)C(c2ccccc2Cl)NC(=S)N1 (stereo not drawn)
≤ 5 µM | CC1=C(C(=O)OCC(C)C)C(c2ccccc2C(F)(F)F)NC(=O)N1 (stereo not drawn)
> 10 µM | CC1=C(C(=O)OC2CCC(C)CC2)C(c2ccc(N(C)C)cc2)NC(=O)N1 (stereo not drawn)
> 10 µM | C=CCOC(=O)C1=C(C)NC(=S)NC1c1ccccc1OCC (stereo not drawn)
> 10 µM | CC1=C(C(=O)Nc2ccc(Br)cc2)C(c2ccccc2)NC(=O)N1C (stereo not drawn)

IC50 | SMILES
> 10 µM | CC1=C(C(=O)OCCC(C)C)C(c2ccc(Cl)c(Cl)c2)NC(=O)N1 (stereo not drawn)
> 10 µM | CC1=C(C(=O)OCCc2ccccc2)C(c2ccccc2)NC(=O)N1 (stereo not drawn)
≤ 1 µM | CCOC(=O)C1=C(c2ccc(N(C)C)cc2)NC(=O)NC1c1ccccc1 (stereo not drawn)
> 10 µM | COc1ccc(C2NC(=O)N(C)C(C)=C2C(=O)Nc2ccccc2C)cc1 (stereo not drawn)
> 10 µM | CC1=C(C(=O)OCc2ccccc2)C(c2ccccc2F)NC(=O)N1 (stereo not drawn)
> 10 µM | CCCOC(=O)C1=C(C)NC(=O)NC1c1ccc(N(CC)CC)cc1 (stereo not drawn)
> 10 µM | CC1=C(C(=O)OCc2ccc(C)cc2)C(c2ccc(F)cc2)NC(=O)N1 (stereo not drawn)
> 10 µM | CC1=C(C(=O)OC(C)C)C(c2cccc(Cl)c2)NC(=O)N1 (stereo not drawn)
≤ 5 µM | CC1=C(C(=O)OCCc2ccccc2)C(c2ccc(Cl)cc2)NC(=O)N1 (stereo not drawn)
> 10 µM | CC1=C(C(=O)OC2CCCCC2)C(c2ccc(F)cc2)NC(=O)N1 (stereo not drawn)
> 10 µM | C=CCOC(=O)C1=C(C)NC(=O)NC1c1ccc(F)cc1 (stereo not drawn)
> 10 µM | CC1=C(C(=O)OC(C)C)C(c2cccc(Br)c2)NC(=O)N1 (stereo not drawn)
> 10 µM | CC1=C(C(=O)OC(C)C)C(c2ccc(Cl)cc2)NC(=O)N1 (stereo not drawn)
> 10 µM | CCCCCOC(=O)C1=C(C)NC(=O)NC1c1cccc(Br)c1 (stereo not drawn)
> 10 µM | CCC(C)OC(=O)C1=C(C)NC(=O)NC1c1ccccc1Cl (stereo not drawn)
> 10 µM | C=CCOC(=O)C1=C(C)NC(=O)NC1c1ccc(N(CC)CC)cc1 (stereo not drawn)
≤ 5 µM | C=CCOC(=O)C1=C(C)NC(=O)NC1c1ccc(C)cc1 (stereo not drawn)
> 10 µM | CC1=C(C(=O)OCC(F)(F)F)C(c2ccc(N(C)C)cc2)NC(=O)N1 (stereo not drawn)
> 10 µM | CCCOC(=O)C1=C(C)NC(=O)NC1c1cccc2ccccc12 (stereo not drawn)
> 10 µM | CCCCCOC(=O)C1=C(C)NC(=S)NC1c1ccccc1 (stereo not drawn)
> 10 µM | C=CCOC(=O)C1=C(C)NC(=O)NC1c1ccc(CC)cc1 (stereo not drawn)
> 10 µM | CC1=C(C(=O)OCC2CCCCC2)C(c2ccccc2F)NC(=O)N1 (stereo not drawn)
> 10 µM | CCCCOC(=O)C1=C(C)NC(=O)NC1c1ccc(C)cc1 (stereo not drawn)
> 10 µM | CC1=C(C(=O)OCCc2ccccc2)C(c2ccc(F)cc2)NC(=O)N1 (stereo not drawn)
> 10 µM | CC1=C(C(=O)OCC(Cl)(Cl)Cl)C(c2ccccc2)NC(=O)N1 (stereo not drawn)
> 10 µM | CC1=C(C(=O)OCc2ccc(C)cc2)C(c2ccccc2)NC(=O)N1 (stereo not drawn)

IC50 | SMILES
> 10 µM | CCCOC(=O)C1=C(C)NC(=O)NC1c1cccc(Cl)c1 (stereo not drawn)
> 10 µM | CC1=C(C(=O)OCC(F)(F)F)C(c2ccc(Br)cc2)NC(=O)N1 (stereo not drawn)
> 10 µM | CCc1ccc(C2NC(=O)NC(C)=C2C(=O)OC2CCCC2)cc1 (stereo not drawn)
> 10 µM | CC1=C(C(=O)OCc2ccccc2)C(c2ccc(F)cc2)NC(=O)N1 (stereo not drawn)
> 10 µM | CC1=C(C(=O)OCc2ccc(C)cc2)C(c2ccccc2F)NC(=O)N1 (stereo not drawn)
> 10 µM | COC(C)OC(=O)C1=C(C)NC(=O)NC1c1cccc(Cl)c1Cl (stereo not drawn)
> 10 µM | CC1=C(C(=O)OC2CCCCCC2)C(c2cccc(Cl)c2)NC(=O)N1 (stereo not drawn)
> 10 µM | CC1=C(C(=O)OCc2ccccc2)C(c2cccc(Cl)c2)NC(=O)N1 (stereo not drawn)
> 10 µM | CC1=C(C(=O)OC(C)C(C)C)C(c2ccc(C)cc2)NC(=O)N1 (stereo not drawn)
> 10 µM | CC1=C(C(=O)OCc2ccc(C)cc2)C(c2ccc(N(C)C)cc2)NC(=O)N1 (stereo not drawn)
> 10 µM | CCOC(=O)C1=C(C)NC(=O)NC1c1ccccc1C (stereo not drawn)
> 10 µM | COC(=O)C1=C(C)N(C)C(=O)N(C)C1c1cccc([N+](=O)[O-])c1 (stereo not drawn)
> 10 µM | CCOC(=O)C1=C(C)NC(=O)NC1c1ccc(F)cc1F (stereo not drawn)
≥ 20 µM | CCOC(=O)C1=C(C)N(CC)C(=O)NC1c1ccccc1Cl (stereo not drawn)
≤ 5 µM | CCN1C(=O)NC(c2ccc(Br)cc2)C(C(=O)OC(C)C)=C1C (stereo not drawn)
≥ 30 µM | CCCC1=C(C(=O)OCC)C(c2ccc(Br)cc2)NC(=O)N1 (stereo not drawn)
≤ 10 µM | CCOC(=O)C1=C(c2ccccc2)NC(=O)NC1c1ccc(CC)cc1 (stereo not drawn)
> 10 µM | CCCC1=C(C(=O)OCC)C(c2ccc(CC)cc2)NC(=O)N1 (stereo not drawn)
> 10 µM | CCCC1=C(C(=O)OCC)C(c2ccc(Cl)cc2Cl)NC(=O)N1 (stereo not drawn)
≤ 5 µM | CC1=C(C(=O)OCC(C)C)C(c2ccc([N+](=O)[O-])cc2)NC(=O)N1C (stereo not drawn)
> 10 µM | CC1=C(C(=O)OC2CCCC2)C(c2ccccc2Cl)NC(=O)N1C (stereo not drawn)
≤ 5 µM | COCCOC(=O)C1=C(C)NC(=S)NC1c1ccc(F)cc1 (stereo not drawn)
> 10 µM | COCCOC(=O)C1=C(C)NC(=S)NC1c1ccc(Br)cc1 (stereo not drawn)
> 10 µM | COCCOC(=O)C1=C(C)NC(=S)NC1c1cccc(Br)c1 (stereo not drawn)
> 10 µM | CCOC(=O)C1=C(C)NC(=O)NC1c1ccc(SC)cc1 (stereo not drawn)
≥ 30 µM | COC(=O)C1=C(C)N(C)C(=S)NC1c1ccc(OC)cc1 (stereo not drawn)

IC50 | SMILES
> 10 µM | COc1ccc(C2NC(=S)N(C)C(C)=C2C(=O)Nc2ccccc2)cc1 (stereo not drawn)
≥ 20 µM | COC(=O)C1=C(C)N(C)C(=S)NC1c1cccc(OC)c1 (stereo not drawn)
≤ 10 µM | COC(=O)C1=C(C)N(C)C(=S)NC1c1ccc(Cl)cc1 (stereo not drawn)
> 10 µM | CC1=C(C(=O)OC(C)C)C(c2ccc(C(C)C)cc2)NC(=O)N1 (stereo not drawn)
> 10 µM | CCOC(=O)C1=C(C)NC(=S)NC1c1ccc(OC(C)C)cc1 (stereo not drawn)
> 10 µM | COC(=O)C1=C(C)NC(=S)NC1c1ccc(OC(C)C)cc1 (stereo not drawn)
> 10 µM | CC1=C(C(=O)N2CCOCC2)C(c2cccc(Cl)c2)NC(=O)N1 (stereo not drawn)
> 10 µM | CC1=C(C(=O)OC(C)C)C(c2ccc(Cl)cc2)NC(=S)N1 (stereo not drawn)
≤ 5 µM | COC(=O)C1=C(C)NC(=S)NC1c1cc(OC)ccc1Br (stereo not drawn)
> 10 µM | CCOC(=O)C1=C(C)N(C)C(=O)NC1c1cccc(Cl)c1Cl (stereo not drawn)
> 10 µM | COC(=O)C1=C(C)N(C)C(=O)NC1c1cccc(Cl)c1 (stereo not drawn)
> 10 µM | CCOC(=O)C1=C(C)NC(=S)NC1c1ccc(CC)cc1 (stereo not drawn)
> 10 µM | COC(=O)C1=C(C)N(C)C(=O)NC1c1ccc(C(C)(C)C)cc1 (stereo not drawn)
> 10 µM | CCOC(=O)C1=C(C)NC(=S)NC1c1cc(OC)ccc1Br (stereo not drawn)
> 10 µM | CCOC(=O)C1=C(C)NC(=S)NC1c1cc(C)ccc1C (stereo not drawn)
> 10 µM | COC(=O)C1=C(C)N(C)C(=O)NC1c1cc(Br)ccc1F (stereo not drawn)
≤ 10 µM | CCC(C)OC(=O)C1=C(C)NC(=O)NC1c1ccc(C(F)(F)F)cc1 (stereo not drawn)
> 10 µM | CCCC1=C(C(=O)OCC)C(c2cccc([N+](=O)[O-])c2)NC(=O)N1C (stereo not drawn)
> 10 µM | COC(=O)C1=C(C)NC(=O)NC1c1cc(C)ccc1C (stereo not drawn)
> 10 µM | COC(=O)C1=C(C)NC(=O)NC1c1ccc(C(C)(C)C)cc1 (stereo not drawn)
> 10 µM | COC(=O)C1=C(C)NC(=O)NC1c1ccc2ccccc2c1 (stereo not drawn)
> 10 µM | CC1=C(C(=O)OC(C)(C)C)C(c2cccc(Br)c2)NC(=O)N1 (stereo not drawn)
> 10 µM | CC1=C(C(=O)OC(C)(C)C)C(c2ccccc2Cl)NC(=O)N1 (stereo not drawn)

SMILES | IC50
CCOC(=O)C1=C(C)N(C)C(=S)NC1c1ccccc1 (stereo not drawn) | > 10 µM
